For 28 compounds, IC50 results are on record in US5639783A, “Ketone derivatives” (Mitsubishi Chemical Corporation, priority 1991, dated 1997).

For the assay, the target named is T1, m-calpain (Rattus norvegicus, UniProt Q07009).
T1 construct: m-calpain was purified from rat brain; from tissue; host or cells: rat brain
T1 sequence (Q07009 20-700 limits assumed): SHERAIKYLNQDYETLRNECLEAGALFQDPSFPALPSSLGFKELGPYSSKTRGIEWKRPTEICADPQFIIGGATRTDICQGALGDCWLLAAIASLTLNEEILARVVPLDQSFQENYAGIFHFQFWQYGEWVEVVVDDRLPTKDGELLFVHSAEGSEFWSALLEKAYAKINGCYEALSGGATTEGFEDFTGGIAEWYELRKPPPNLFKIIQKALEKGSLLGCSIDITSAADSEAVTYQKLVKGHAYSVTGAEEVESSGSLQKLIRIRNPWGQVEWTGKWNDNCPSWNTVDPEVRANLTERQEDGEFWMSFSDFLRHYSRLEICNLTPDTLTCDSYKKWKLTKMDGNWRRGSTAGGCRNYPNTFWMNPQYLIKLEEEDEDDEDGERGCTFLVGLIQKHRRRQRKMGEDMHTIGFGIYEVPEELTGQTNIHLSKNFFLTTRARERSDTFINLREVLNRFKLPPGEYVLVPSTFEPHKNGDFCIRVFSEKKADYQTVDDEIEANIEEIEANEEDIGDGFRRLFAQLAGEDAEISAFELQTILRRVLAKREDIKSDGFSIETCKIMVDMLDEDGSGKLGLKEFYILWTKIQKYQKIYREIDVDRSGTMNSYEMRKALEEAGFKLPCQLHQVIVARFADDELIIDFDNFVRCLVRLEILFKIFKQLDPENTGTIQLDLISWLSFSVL
T1 sequence (Q64537 1-270 partner): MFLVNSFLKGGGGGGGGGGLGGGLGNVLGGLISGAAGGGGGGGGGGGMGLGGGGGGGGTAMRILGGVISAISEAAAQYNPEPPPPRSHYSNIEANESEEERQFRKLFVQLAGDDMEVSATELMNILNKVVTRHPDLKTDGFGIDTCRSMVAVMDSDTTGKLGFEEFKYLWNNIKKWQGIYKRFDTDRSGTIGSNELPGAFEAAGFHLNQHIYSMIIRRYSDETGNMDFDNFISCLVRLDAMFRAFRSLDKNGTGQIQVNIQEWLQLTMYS
Nature of the assay: Thiol protease inhibitory activity, m-calpain purified from rat brain. Format: biochemical. The note with it: Table 4. The procedure:
Inhibitory activity against papain (P-3125, Sigma) and cathepsin B (C-6286, Sigma) was assayed according to the method described in a literature [Biochemical Journal, 201, 189 (1982)]. Cathepsin L was purified from rat kidney according to the method in a literature [Journal of Biochemistry, 100, 35 (1986)], and the inhibitory activity against it was assayed in the same manner as described in the above literature for cathepsin B. Furthermore, m-calpain was purified from rat brain according to a known method [Journal of Biological Chemistry, 254, p. 3210 (1984)] and the inhibitory activity against it was assayed by a method described in a literature [Journal of Biological Chemistry, 259, 12489 (1984)]. It is evident from Tables 3 and 4 that the compounds of the present invention have a potent inhibitory activity against thiol proteases such as papain, cathepsin B, cathepsin L or m-calpain.

For `CCCC[C@H](NC(=O)[C@H](CC(C)C)NC(=O)OCc1cccc(C#N)c1)C(=O)CSCc1ccco1` [26 (No. 57), (s)-3-[(s)-2-(3-cyanobenzyloxycarbonylamino)-4-methylvalerylamino]-1-furfurylthio-2-heptanone], half-maximal inhibition (IC50) required 2.8 µM.

Consider `CCCC[C@H](NC(=O)[C@H](CC(C)C)NC(=O)C1CCCCC1)C(=O)CSCc1ccco1` [29 (No. 65), (s)-3-((s)-2-cyclohexylcarbonylamino-4-methylvalerylamino)-1-furfurylthio-2-heptanone], for which half-maximal inhibition (IC50) was put at 3.6 µM.

With `CCCC[C@H](NC(=O)[C@H](CC(C)C)NC(=O)Cc1cccc2c1OCO2)C(=O)CSCc1ccco1` [32 (No. 73), (s)-1-furfurylthio-3-[(s)-4-methyl-2-(2,3-methylenedioxyphenylacetylamino)valerylamino]-2-heptanone], the IC50 – broadly, the midpoint of a concentration-inhibition curve – is 6.2 µM.

In turn, `CCCC[C@H](NC(=O)[C@H](CC(C)C)NC(=O)COc1ccccc1OC)C(=O)CSCc1ccco1` [47 (No. 102), (s)-1-furfurylthio-3-[(s)-2-(2-methoxyphenoxyacetylamino)-4-methylvalerylamino]-2-heptanone] yielded an IC50 of 1.3 µM.

Regarding `CCCC[C@H](NC(=O)[C@H](CC(C)C)NC(=O)COc1ccc(OC)cc1)C(=O)CSCc1ccco1` [48 (No. 104), (s)-1-furfurylthio-3-[(s)-2-(4-methoxyphenoxyacetylamino)-4-methylvalerylamino]-2-heptanone], the IC50 is 1 µM.

The compound `CCCC[C@H](NC(=O)[C@H](CC(C)C)NC(=O)c1ccccc1F)C(=O)CSCc1ccco1` [55 (No. 117), (s)-3-[(s)-2-(2-fluorobenzoylamino)-4-methylvalerylamino]-1-furfurylthio-2-heptanone] had an IC50 of 1.5 µM.

`CCCC[C@H](NC(=O)[C@H](CC(C)C)NC(=O)c1cccc(F)c1)C(=O)CSCc1ccco1` [56 (No. 118), (s)-3-[(s)-2-(3-fluorobenzoylamino)-4-methylvalerylamino]-1-furfurylthio-2-heptanone] returned an IC50 of 5.2 µM.

`CCCC[C@H](NC(=O)[C@H](CC(C)C)NC(=O)c1ccc(F)cc1)C(=O)CSCc1ccco1` [57 (No. 119), (s)-3-[(s)-2-(4-fluorobenzoylamino)-4-methylvalerylamino]-1-furfurylthio-2-heptanone] yielded an IC50 of 5.3 µM.

Turning to `CCCC[C@H](NC(=O)[C@H](CC(C)C)NC(=O)c1cccc(F)c1F)C(=O)CSCc1ccco1` [58 (No. 120), (s)-3-[(s)-2-(2,3-difluorobenzoylamino)-4-methylvalerylamino]-1-furfurylthio-2-heptanone], the IC50 stood at 1.6 µM.

The compound `CCCC[C@H](NC(=O)[C@H](CC(C)C)NC(=O)c1ccc(F)cc1F)C(=O)CSCc1ccco1` [59 (No. 121), (s)-3-[(s)-2-(2,4-difluorobenzoylamino)-4-methylvalerylamino]-1-furfurylthio-2-heptanone] returned an IC50 of 4.2 µM.

`CCCC[C@H](NC(=O)[C@H](CC(C)C)NC(=O)c1cc(F)ccc1F)C(=O)CSCc1ccco1` [60 (No. 122), (s)-3-[(s)-2-(2,5-difluorobenzoylamino)-4-methylvalerylamino]-1-furfurylthio-2-heptanone] showed an IC50 of 1.3 µM.

Compound `CCCC[C@H](NC(=O)[C@H](CC(C)C)NC(=O)c1c(F)cccc1F)C(=O)CSCc1ccco1` [61 (No. 123), (s)-3-[(s)-2-(2,6-difluorobenzoylamino)-4-methylvalerylamino]-1-furfurylthio-2-heptanone] came in with an IC50 of 1.9 µM.

Turning to `CCCC[C@H](NC(=O)[C@H](CC(C)C)NC(=O)c1ccc(F)c(F)c1)C(=O)CSCc1ccco1` [62 (No. 124), (s)-3-[(s)-2-(3,4-difluorobenzoylamino)-4-methylvalerylamino]-1-furfurylthio-2-heptanone], the IC50 is 4.3 µM.

Turning to `CCCC[C@H](NC(=O)[C@H](CC(C)C)NC(=O)c1cc(F)cc(F)c1)C(=O)CSCc1ccco1` [63 (No. 125), (s)-3-[(s)-2-(3,5-difluorobenzoylamino)-4-methylvalerylamino]-1-furfurylthio-2-heptanone], the IC50 worked out at 5.5 µM.

`CCCC[C@H](NC(=O)[C@H](CC(C)C)NC(=O)c1ccc(F)c(F)c1F)C(=O)CSCc1ccco1` [64 (No. 126), (s)-1-furfurylthio-3-[(s)-4-methyl-2-(2,3,4-trifluorobenzoylamino)valerylamino]-2-heptanone] had an IC50 of 4.3 µM.

`CCCC[C@H](NC(=O)[C@H](CC(C)C)NC(=O)c1c(F)ccc(F)c1F)C(=O)CSCc1ccco1` [65 (No. 128), (s)-1-furfurylthio-3-[(s)-4-methyl-2-(2,3,6-trifluorobenzoylamino)valerylamino]-2-heptanone] displayed an IC50 of 5 µM.

Take `CCCC[C@H](NC(=O)[C@H](CC(C)C)NC(=O)c1cc(F)c(F)c(F)c1)C(=O)CSCc1ccco1` [66 (No. 130), (s)-1-furfurylthio-3-[(s)-4-methyl-2-(3,4,5-trifluorobenzoylamino)valerylamino]-2-heptanone]: the concentration for half-maximal inhibition (IC50) was 1.4 µM.

The compound `CCCC[C@H](NC(=O)[C@H](CC(C)C)NC(=O)c1cc(F)c(F)c(F)c1F)C(=O)CSCc1ccco1` [67 (No. 132), (s)-1-furfurylthio-3-[(s)-4-methyl-2-(2,3,4,5-tetrafluorobenzoylamino)valerylamino]-2-heptanone] displayed a half-maximal inhibitory concentration (IC50) of 2.1 µM.

`CCCC[C@H](NC(=O)[C@H](CC(C)C)NC(=O)c1c(F)c(F)c(F)c(F)c1F)C(=O)CSCc1ccco1` [68 (No. 135), (s)-1-furfurylthio-3-((s)-4-methyl-2-pentafluorobenzoylaminovalerylamino)-2-heptanone]: the IC50 is 2.1 µM.

In turn, `CCCC[C@H](NC(=O)[C@H](CC(C)C)NC(=O)c1ccccc1C)C(=O)CSCc1ccco1` [69 (No. 140), (s)-1-furfurylthio-3-[(s)-4-methyl-2-(2-toluoylamino)valerylamino]-2-heptanone] displayed an IC50 of 5 µM.

`CCCC[C@H](NC(=O)[C@H](CC(C)C)NC(=O)c1ccc(C)cc1)C(=O)CSCc1ccco1` [71 (No. 142), (s)-1-furfurylthio-3-[(s)-4-methyl-2-(4-toluoylamino)valerylamino]-2-heptanone] had an IC50 of 4.2 µM.

Compound `CCCC[C@H](NC(=O)[C@H](CC(C)C)NC(=O)c1ccccc1OC)C(=O)CSCc1ccco1` [77 (No. 151), (s)-1-furfurylthio-3-[(s)-2-(2-methoxybenzoylamino)-4-methylvalerylamino]-2-heptanone] showed an IC50 of 1.2 µM.

`CCCC[C@H](NC(=O)[C@H](CC(C)C)NC(=O)COc1cccc(OC)c1)C(=O)CSCc1ccco1` [78 (No. 103), (s)-1-furfurylthio-3-[(s)-2-(3-methoxyphenoxyacetylamino)-4-methylvalerylamino]-2-heptanone]: half-maximal inhibition (IC50) was put at 6 µM.

As to `CCCC[C@H](NC(=O)[C@H](CC(C)C)NC(=O)c1ccc(OC)cc1)C(=O)CSCc1ccco1` [79 (No. 153), (s)-1-furfurylthio-3-[(s)-2-(4-methoxybenzoylamino)-4-methylvalerylamino]-2-heptanone], 1.9 µM corresponded to half-maximal inhibition (IC50).

Regarding `CCCC[C@H](NC(=O)[C@H](CC(C)C)NC(=O)c1cc(OC)cc(OC)c1)C(=O)CSCc1ccco1` [80 (No. 155), (s)-3-[(s)-2-(3,5-dimethoxybenzoylamino)-4-methylvalerylamino]-1-furfurylthio-2-heptanone], half-maximal inhibition (IC50) required 4.2 µM.

For the compound `CCCC[C@H](NC(=O)[C@H](CC(C)C)NC(=O)c1ccc(C(=O)OC)cc1)C(=O)CSCc1ccco1` [81 (No. 157), (s)-1-furfurylthio-3-[(s)-2-(4-methoxycarbonylbenzoylamino)-4-methylvalerylamino]-2-heptanone], the IC50 came out at 3.4 µM.

Regarding `CCCC[C@H](NC(=O)[C@H](CC(C)C)NC(=O)C=Cc1ccc(OC)cc1)C(=O)CSCc1ccco1` [84 (No. 165), (s)-1-furfurylthio-3-[(s)-2-(4-methoxycinnamoylamino)-4-methylvalerylamino]-2-heptanone], 2.1 µM corresponded to half-maximal inhibition (IC50).

For `CCCC[C@H](NC(=O)[C@H](CC(C)C)NC(=O)C=Cc1ccc(OC)cc1OC)C(=O)CSCc1ccco1` [85 (No. 166)], the IC50 is 1.3 µM.
